Measurements from US11702450B2, “Proteogenomic-based method for identifying tumor-specific antigens” (UNIVERSITÉ DE MONTRÉAL, priority 2018, dated 2023).
Entries after “also recorded” stand apart in the source; their conditions may differ.

Assays:
CD8^+ T cells = format: cell-based, C57BL/6 mice
EL4 cells = experiment: Immunization with TSA-pulsed DCs followed by live EL4 cell challenge and rechallenge; format: in vivo, C57BL/6 mice; settings: for mice with prolonged survival after priming / day-150 survival rate: immunized twice with TSA-pulsed DCs, 5×10^5 live EL4 cells i.v. day 0; for outcome of rechallenge with live EL4 cells at day 150: surviving immunized mice rechallenged at day 150
Procedure: Generation of bone marrow-derived dendritic cells (DCs), mouse immunization and EL4 cell injection. Bone marrow—derived DCs were generated as previously described^13a,14a. For mouse immunization, DCs from male C57BL/6 mice were pulsed with 2 μM of the selected peptide for 3 hours, then washed. 8- to 12-week old female C57BL/6 mice were injected i.v. with 10^6 individually peptide-pulsed DCs at day −14 and −7, or with irradiated EL4 cells (10,000 cGy). As negative control, C57BL/6 female mice were immunized with unpulsed DCs. At day 0 and day 150, mice were injected i.v. with 5×10^5 EL4 cells and were monitored for weight loss, paralysis, or tumor outgrowth.

[1] = literature references 9, 37; cited from earlier work

Sequence | frequency of antigen-specific CD8 T cells in naive mice (CD8^+ T cells) | day-150 survival rate (EL4 cells) | outcome of rechallenge with live EL4 cells at day 150 (EL4 cells) | other results
HGIRNASFI (listed as Murine cytomegalovirus) [M45, H-2db, reference compound] | within range of those observed in previous studies |  |  | 
IILEFHSL (listed as Mus musculus) [EL4 TSA] | less than one |  |  | mice with prolonged survival after priming (EL4 cells): 10%
KAVYNFATC [gp-33, reference compound] | within range of those observed in previous studies |  |  | 
SPSYVYHQF (listed as Mus musculus) [AH1 peptide, aeTSA previously identified on CT26 cells] |  |  |  | antitumor responses and adverse effects [1]: elicits strong antitumor responses devoid of adverse effects
TSYKFESV [B8R, reference compound] | within range of those observed in previous studies |  |  | 
TVPLNHNTL (listed as Mus musculus) [EL4 TSA] | less than one | surviving up day 150 | survived the rechallenge | mice with prolonged survival after priming (EL4 cells): 10%
VNYIHRNV (VNYXHRNV; VARIANT (4)..(4) Xaa is Ile or Leu; listed as Mus musculus) | frequencies similar to those of the viral controls | 20% | not sufficient to protect mice upon rechallenge; also recorded: no significant protection upon rechallenge | tetramer^+ CD8 T cells in long-term survivors after rechallenge (CD8^+ T cells): large population of tetramer^+ cells; time to death from leukemia after rechallenge (EL4 cells; surviving immunized mice rechallenged with EL4 cells at day 150): ≤ 50 days
VNYLHRNV (VNYXHRNV; VARIANT (4)..(4) Xaa is Ile or Leu; listed as Mus musculus) | frequencies similar to those of the viral controls | 100% | survived the rechallenge | rank of protection against EL4 challenge (EL4 cells; immunization with TSA-pulsed DCs): best protection
